# Where two headings read alike, the source gives them in different places.
# How the values were obtained:
# Molm-13 = assay: cells; format: cell-based
# NB4 = assay: cells; format: cell-based
# 4T1 = assay: cells; format: cell-based
# HeLa = assay: cells; format: cell-based, human
# COS-7 = assay: cells; format: cell-based, African green monkey
# PBMC = assay: cells; format: cell-based, rat
# cancer cells = assay: MTT assay, cancer cell lines taken together; format: cell-based; conditions: all cancer cell lines
# Protocol: The bioactivity of all the synthetic compounds was evaluated by a MTT assay (Table 1, Tables S1 and S2) against two leukemia cell lines, Molm-13 and NB4; two solid tumor cell lines, HeLa (human cervix cell line) and 4T1 (breast cancer cell line); and two normal cell lines, COS-7 (African green monkey kidney cell line) and rat PBMC (peripheral blood mononuclear cell line).
# Cells were cultured in 96-well plates overnight, followed by adding 80 μL of a related medium containing compounds of different concentrations and dissolved in DMSO for 24 h or 48 h. Then, 40 μL of MTT (2.5 mg/mL) was added and the cells were incubated for another 4 h. The cells were then dissolved in 100 μL of 10% SDS solution or DMSO to release and dissolve the purple MTT products, followed by absorbance detection (BioTek, Winooski, VT, USA).
# TrxR = assay: Cellular TrxR activity of 4T1 cells; format: cell-based; conditions: 12 h incubation
# [1] = test system: 4T1 cells with TrxR knocked down; assay: MTT assay of 4T1 cells with TrxR siRNA knock-down; format: cell-based
# [2] = test system: Trx system (TrxR1, Trx1, TrxR2, Trx2); assay: Transcription of Trx system genes in 4T1 cells; format: cell-based; conditions: 24 h, 1IC50 and 1.5IC50
# Text: See the methods in previous work.
# 4T1 cells = assay: ROS level by DCFH-DA in 4T1 cells; format: cell-based
# Protocol: The 4T1 cells treated with the MAZ2 of 0.8 and 1.6 µM were seeded in 6-well plates for 3, 6, 9, 12, and 24 h. Then, the medium was removed and fresh medium with DCFH-DA (0.2 µM) was added, followed by 30 min of incubation. Next, cells were collected and washed twice with PBS. Data were collected by a C6 flow cytometer (BD Biosciences, Franklin Lakes, New Jersey, USA).
# The 4T1 cells treated with the MAZ2 of 0.8 and 1.6 µM were cultured in 1 cm dishes specially designed for confocal tests. Nine hours later, DCFH-DA was added for confocal tests.
# GSH = GSH content; format: cell-based
# Molm-13 and 4T1 cells = assay: MDA content (lipid peroxidation); format: cell-based; conditions: 6 and 12 h
# Protocol: The Molm-13 and 4T1 cells were cultured in 6-well plates for 6 and 12 h, followed by an MDA test according to the manufacturer’s instructions.
# Molm-13 cells = assay: Apoptosis assay by flow cytometry; format: cell-based; conditions: 0.2, 0.3 and 0.4 µM, 24 h
# Protocol: The Molm-13 cells were cultured with 0.2, 0.3, and 0.4 µM MAZ2 for 24 h; then, the cells were collected and stained using annixin V-FITC and PE for 30 min. The separation lines were determined by single staining.
# 4T1 tumors = assay: 4T1 tumor syngeneic model in Balb/C mice; format: in vivo; conditions: for average tumor weight reduced by: two administrations, day 26
# Protocol: To confirm the bioactivity of MAZ2 in vivo, the tumor growth inhibition in 4T1 tumor syngeneic models in Balb/C mice was investigated (Figure 4A). When tumors grew to about 100 mm^3, the mice were divided into three groups; namely, the control, 1 mg/kg of MAZ2, and 1.5 mg/kg of MAZ2. Either a vehicle or the MAZ2 was injected intraperitoneally once a week. […] Therefore, the experiments were terminated at day 26 after two administrations.
# (§1) The mice (BALB/c, female, 5 weeks), purchased from Hubei Provincial Laboratory Animal Public Service Center, were injected with 0.1 mL of 4T1 cells (1 × 10^6/mL) in the right haunch. After the tumor grew to approximately 100 mm^3, the mice were randomly divided into three groups: control (PBS:DMSO = 8:2), 1 mg/kg, and 1.5 mg/kg. The MAZ2 was administrated once a week (i.p.) for two doses. The 1.5 mg/kg group had six mice, and the tumors of two mice disappeared after 8 days; that is, after one administration, the two tumors were almost eliminated. The body weight and tumor volume were measured every two days.
# (§2) Fresh tumors and organs were minced quickly in an ice bath and homogenized in a pre-cooled Dounce Tissue Grinder (WHEATON). The homogenate was dissolved by RIPA with 0.1% PMSF. The protein concentration was determined by a BCA Protein Assay Kit (Beyotime, Shanghai, China). A total of 20–40 μg of proteins were separated by 8–12% SDS-PAGE according to the molecular weight of certain proteins, followed by being transferred onto the polyvinylidene difluoride membrane. Then, the membrane was blocked with 5% fat-free milk for 2 h, followed by incubation with primary antibodies and HRP-conjugated secondary antibodies. Then, the images were snapped by QuickChemi5100.
# [3] = Side effects in 4T1 tumor-bearing mice; format: in vivo
# Protocol: as §1
# Blood samples for the blood cell content tests were collected from the eye socket veins of the mice.
# as §2
# The 5 organs were formalin-fixed for 24 h immediately after the mice were sacrificed, and decalcified for 3.5 h, paraffin-embedded, cut, dewaxed, and hydrated. Some samples were stained with H&E. The pictures in the results were magnified by 400× and the scale bar was 50 µm.
# [4] = rat, in vivo
# [5] = Arsenic content of viscera and tumor by ICP-MS; conditions: mouse, in vivo
smiles,measurement,setting,value
COc1ccc(C(=O)Nc2ccc([As]3SCCCS3)cc2)cc1 [MAZ2],IC50,Molm-13; read-out: IC50 Molm 24 h,200 nM
same,IC50,Molm-13; read-out: IC50 Molm 48 h,100 nM
same,IC50,NB4; read-out: IC50 NB4 24 h,400 nM
same,IC50,NB4; read-out: IC50 NB4 48 h,300 nM
same,IC50,4T1; read-out: IC50 4T1 24 h,800 nM
same,IC50,4T1; read-out: IC50 4T1 48 h,400 nM
same,IC50,HeLa; read-out: IC50 HeLa 24 h,400 nM
same,IC50,HeLa; read-out: IC50 HeLa 48 h,300 nM
same,IC50,COS-7; read-out: IC50 COS-7 24 h,5200 nM
same,IC50,COS-7; read-out: IC50 COS-7 48 h,3300 nM
same,IC50,PBMC; read-out: IC50 PBMC 24 h,7600 nM
same,IC50,PBMC; read-out: IC50 PBMC 48 h,6900 nM
same,IC50,cancer cells,< 1000 nM
same,TrxR activity of the 4T1 cells,TrxR,sharply reduced activity
same,change of IC50 value after TrxR was knocked down,[1],5.5 fold
same,transcription of the Trx system,[2],decreased the transcription of the Trx system
same,incubation time at which the ROS peak was reached,4T1 cells,9 h
same,ROS level,4T1 cells; 0.8 and 1.6 µM,rose sharply in a dosage-dependent manner
same,influence on the GSH content,GSH,very little influence
same,MDA content,Molm-13 and 4T1 cells,increased acutely and dosage-dependently
same,apoptosis induction,Molm-13 cells,induced apoptosis in a dosage-dependent manner
same,average tumor weight reduced by,4T1 tumors; 1 mg/kg i.p. once a week,30%
same,tumor growth (tumor volume),4T1 tumors; 1 mg/kg or 1.5 mg/kg i.p. once a week,completely reverse the growth of tumors and gradually eliminate tumors
same,tumors eliminated,"4T1 tumors; 1.5 mg/kg i.p. once a week, after two weeks",two tumors in the mice belonging to the 1.5 mg/kg MAZ2 group were eliminated
same,average tumor weight reduced by,4T1 tumors; 1.5 mg/kg i.p. once a week,15%
same,TrxR and Trx content of tumors by western blot,4T1 tumors; tumors of treated mice,reduced the TrxR1 content slightly and reduced the Trx1 content by a large amount
same,body weight of the mice,[3]; 1 and 1.5 mg/kg i.p. once a week,no obvious impact on the body weight
same,"blood cell counts (WBC, NEUT, LYMPH, MONO)",[3]; tumor-bearing mice versus normal mice,lowered the counts of blood cells and reversed abnormalities in the hematological system
same,"H&E staining of heart, liver, spleen, lungs, kidneys",[3]; two MAZ2-administered groups,showed healthy organs
same,TrxR content of the liver and spleen,[3]; western blot,no changes
same,blood arsenic content over time,[4],decreased slowly and remained at high levels even after 2 days
same,arsenic content of tumor and viscera,[5],gathered in the tumor instead of the viscera

# Reference: paper PMC9266561, “1,3-Benzodioxole Derivatives Improve the Anti-Tumor Efficiency of Arsenicals” (International Journal of Molecular Sciences, 2022)
